The record followed here is patent publication US9085555B2, “Complement pathway modulators and uses thereof” (priority 2011, dated 2015).

Each structure is given as a SMILES string.

The test addresses Factor D (Homo sapiens (Human), UniProt P00746). Put plainly: biochemical. The format is biochemical. The note with it: read-out: IC50.

Factor D, sequence (P00746 26-253): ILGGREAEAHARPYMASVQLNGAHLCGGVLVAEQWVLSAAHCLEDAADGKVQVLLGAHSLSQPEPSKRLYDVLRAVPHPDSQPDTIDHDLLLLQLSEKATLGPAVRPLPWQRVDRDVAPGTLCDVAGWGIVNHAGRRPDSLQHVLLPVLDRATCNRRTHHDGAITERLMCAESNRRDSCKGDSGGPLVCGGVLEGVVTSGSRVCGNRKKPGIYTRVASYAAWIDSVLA

Consider `COc1cc2c(C(N)=O)nn(CC(=O)N3[C@@H]4C[C@@H]4C[C@H]3C(=O)Nc3cccc(OC(F)(F)F)c3F)c2cn1` [Example 714, 1-{2-[(1R,3S,5R)-3-(2-Fluoro-3-trifluoromethoxy-phenylcarbamoyl)-2-aza-bicyclo[3.1.0]hex-2-yl]-2-oxo-ethyl}-5-methoxy-1H-pyrazolo[3,4-c]pyridine-3-carboxylic acid amide], for which the IC50 turned out to be 300 nM.

For the compound `CCc1cc2c(C(N)=O)nn(CC(=O)N3C[C@H](F)C[C@H]3C(=O)Nc3cccc(OC(F)(F)F)c3F)c2cn1` [Example 715, 5-Ethyl-1-{2-[(2S,4R)-4-fluoro-2-(2-fluoro-3-trifluoromethoxy-phenylcarbamoyl)-pyrrolidin-1-yl]-2-oxo-ethyl}-1H-pyrazolo[3,4-c]pyridine-3-carboxylic acid amide], the half-maximal inhibitory concentration (IC50) came to 27 nM.

For the compound `Cc1nccc2c(C(N)=O)nn(CC(=O)N3[C@@H]4C[C@@H]4C[C@H]3C(=O)Nc3cccc(OC(F)(F)F)c3F)c12` [Example 716, 1-{2-[(1R,3S,5R)-3-(2-Fluoro-3-trifluoromethoxy-phenylcarbamoyl)-2-aza-bicyclo[3.1.0]hex-2-yl]-2-oxo-ethyl}-7-methyl-1H-pyrazolo[3,4-c]pyridine-3-carboxylic acid amide], the IC50 was found to be 46 nM.

Regarding `Cc1cc2c(C(N)=O)nn(CC(=O)N3[C@@H]4C[C@@H]4C[C@H]3C(=O)Nc3cccc(OC(F)(F)F)c3F)c2c(C)n1` [Example 717, 1-{2-[(1R,3S,5R)-3-(2-Fluoro-3-trifluoromethoxy-phenylcarbamoyl)-2-aza-bicyclo[3.1.0]hex-2-yl]-2-oxo-ethyl}-5,7-dimethyl-1H-pyrazolo [3,4-c]pyridine-3-carboxylic acid amide], the IC50 was found to be 31 nM.

For the compound `CC(=O)c1nn(CC(=O)N2[C@@H]3C[C@@H]3C[C@H]2C(=O)Nc2cccc(OC(F)(F)F)c2F)c2ccc(OCc3ncccn3)cc12` [Example 718, (1R,3S,5R)-2-{2-[3-Acetyl-5-(pyrimidin-2-ylmethoxy)-indazol-1-yl]-acetyl}-2-aza-bicyclo[3.1.0]hexane-3-carboxylic acid (2-fluoro-3-trifluoromethoxy-phenyl)-amide], the IC50 amounted to 24 nM.

For `NC(=O)c1nn(CC(=O)N2[C@@H]3C[C@@H]3C[C@H]2C(=O)Nc2cccc(OC(F)(F)F)c2F)c2cnc(C3CC3)cc12` [Example 719, 5-Cyclopropyl-1-(2-((1R,3S,5R)-3-((2-fluoro-3-(trifluoromethoxy)phenyl)carbamoyl)-2-azabicyclo [3.1.0]hexan-2-yl)-2-oxoethyl)-1H-pyrazolo[3,4-c]pyridine-3-carboxamide], the IC50 worked out at 13 nM.

Turning to `NC(=O)c1nn(CC(=O)N2[C@@H]3C[C@@H]3C[C@H]2C(=O)Nc2cccc(OC(F)(F)F)c2F)c2nnccc12` [Example 720, 1-(2-((1R,3S,5R)-3-((2-Fluoro-3-(trifluoromethoxy)phenyl)carbamoyl)-2-azabicyclo[3.1.0]hexan-2-yl)-2-oxoethyl)-1H-pyrazolo[3,4-c] pyridazine-3-carboxamide], the IC50 is 140 nM.

As to `NC(=O)c1nn(CC(=O)N2[C@@H]3C[C@@H]3C[C@H]2C(=O)Nc2cccc(-c3c(F)cccc3F)n2)c2cnccc12` [Example 721, 1-(2-{(1R,3S,5R)-3-[6-(2,6-Difluoro-phenyl)-pyridin-2-ylcarbamoyl]-2-aza-bicyclo[3.1.0]hex-2-yl}-2-oxo-ethyl)-1H-pyrazolo[3,4-c]pyridine-3-carboxamide], the IC50 stood at 98 nM.

`NC(=O)c1nn(CC(=O)N2[C@@H]3C[C@@H]3C[C@H]2C(=O)Nc2cccc(-c3c(F)cccc3Cl)c2)c2cnccc12` [Example 722, 1-(2-((1R,3S,5R)-3-(2′-Chloro-6′-fluorobiphenyl-3-ylcarbamoyl)-2-azabicyclo[3.1.0]hexan-2-yl)-2-oxoethyl)-1H-pyrazolo[3,4-c] pyridine-3-carboxamide]: the IC50 was determined as 20 nM.

`Cc1cc2c(C(N)=O)nn(CC(=O)N3[C@@H]4C[C@@H]4C[C@H]3C(=O)Nc3cccc(OC(F)(F)F)c3F)c2cn1` [Example 723, 1-{2-[(1R,3S,5R)-3-(2-Fluoro-3-trifluoromethoxy-phenylcarbamoyl)-2-aza-bicyclo[3.1.0]hex-2-yl]-2-oxo-ethyl}-5-methyl-1H-pyrazolo[3,4-c]pyridine-3-carboxylic acid amide]: the IC50 amounted to 90 nM.

With `NC(=O)c1nn(CC(=O)N2[C@@H]3C[C@@H]3C[C@H]2C(=O)Nc2cccc(OC(F)(F)F)c2F)c2cnccc12` [Example 724], the IC50 turned out to be 61 nM.

As for `CC(=O)c1nn(CC(=O)N2[C@@H]3C[C@@H]3C[C@H]2C(=O)Nc2cccc(OC(F)(F)F)c2F)c2cc(C(=O)O)ccc12` [Example 725], the IC50 came to 18 nM.

Regarding `Cc1cc2c(C(N)=O)nn(CC(=O)N3[C@@H]4C[C@@H]4C[C@H]3C(=O)Nc3cccc(OC(F)(F)F)c3F)c2c[n+]1[O-]` [Example 726], the half-inhibitory concentration (IC50) was 169 nM.

In the case of `NC(=O)c1nn(CC(=O)N2[C@@H]3C[C@@H]3C[C@H]2C(=O)Nc2cccc(Br)n2)c2cnccc12` [Example 728, 1-{2-[(1R,3S,5R)-3-(6-bromo-pyridin-2-ylcarbamoyl)-2-aza-bicyclo[3.1.0]hex-2-yl]-2-oxo-ethyl}-1H-pyrazolo[3,4-c] pyridine-3-carboxylic acid amide], the IC50 turned out to be 8 nM.

On to `NC(=O)c1nn(CC(=O)N2[C@@H]3C[C@@H]3C[C@H]2C(=O)Nc2cccc(OC(F)F)c2F)c2ccccc12` [Example 729, 1-{2-[(1R,3S,5R)-3-(3-Difluoromethoxy-2-fluoro-phenylcarbamoyl)-2-aza-bicyclo[3.1.0]hex-2-yl]-2-oxo-ethyl}-1H-indazole-3-carboxylic acid amide], for which the IC50 came to 62 nM.

Take `NC(=O)c1nn(CC(=O)N2[C@@H]3C[C@@H]3C[C@H]2C(=O)Nc2cccc(OC(F)F)c2F)c2cnccc12` [Example 730, 1-{2-[(1R,3S,5R)-3-(3-Difluoromethoxy-2-fluoro-phenylcarbamoyl)-2-aza-bicyclo[3.1.0]hex-2-yl]-2-oxo-ethyl}-1H-pyrazolo[3,4-c] pyridine-3-carboxylic acid amide]: the IC50 is 143 nM.

Turning to `NC(=O)c1nn(CC(=O)N2[C@@H]3C[C@@H]3C[C@H]2C(=O)Nc2cccc(Cl)c2F)c2ccccc12` [Example 731, 1-{2-[(1R,3S,5R)-3-(3-Chloro-2-fluoro-phenylcarbamoyl)-2-aza-bicyclo[3.1.0]hex-2-yl]-2-oxo-ethyl}-1H-indazole-3-carboxylic acid amide], the IC50 was found to be 53 nM.

As to `NC(=O)c1nn(CC(=O)N2[C@@H]3C[C@@H]3C[C@H]2C(=O)Nc2cccc(C(F)(F)F)n2)c2cnccc12` [Example 732, 1-{2-Oxo-2-[(1R,3S,5R)-3-(6-trifluoromethyl-pyridin-2-ylcarbamoyl)-2-aza-bicyclo [3.1.0]hex-2-yl]-ethyl}-1H-pyrazolo[3,4-c]pyridine-3-carboxylic acid amide], the IC50 came out at 44 nM.

Regarding `CC(=O)c1nn(CC(=O)N2[C@@H]3C[C@@H]3C[C@H]2C(=O)Nc2cccc(C(F)(F)F)n2)c2cnccc12` [Example 733, (1R,3S,5R)-2-[2-(3-Acetyl-pyrazolo[3,4-c]pyridin-1-yl)-acetyl]-2-aza-bicyclo[3.1.0] hexane-3-carboxylic acid (6-trifluoromethyl-pyridin-2-yl)-amide], the IC50 turned out to be 25 nM.

Regarding `Cc1cc2c(C(N)=O)nn(CC(=O)N3[C@@H]4C[C@@H]4C[C@H]3C(=O)Nc3cccc(Br)n3)c2cn1` [Example 734, 1-{2-[(1R,3S,5R)-3-(6-Bromo-pyridin-2-ylcarbamoyl)-2-aza-bicyclo[3.1.0]hex-2-yl]-2-oxo-ethyl}-5-methyl-1H-pyrazolo [3,4-c]pyridine-3-carboxylic acid amide], the IC50 was determined as 4 nM.

Turning to `CCc1cc2c(C(N)=O)nn(CC(=O)N3[C@@H]4C[C@@H]4C[C@H]3C(=O)Nc3cccc(Br)n3)c2cn1` [Example 735, 1-{2-[(1R,3S,5R)-3-(6-Bromo-pyridin-2-ylcarbamoyl)-2-aza-bicyclo[3.1.0]hex-2-yl]-2-oxo-ethyl}-5-ethyl-1H-pyrazolo[3,4-c]pyridine-3-carboxylic acid amide], the IC50 was found to be 3 nM.

As for `CC(=O)c1nn(CC(=O)N2[C@@H]3C[C@@H]3C[C@H]2C(=O)Nc2cccc(Br)n2)c2cnccc12` [Example 736, (1R,3S,5R)-2-[2-(3-Acetyl-pyrazolo[3,4-c]pyridin-1-yl)-acetyl]-2-aza-bicyclo[3.1.0] hexane-3-carboxylic acid (6-bromo-pyridin-2-yl)-amide], the IC50 came to 18 nM.

In the case of `C[C@@]12C[C@@H](C(=O)Nc3cccc(OC(F)(F)F)c3F)N(C(=O)Cn3nc(C(N)=O)c4ccncc43)[C@@H]1C2` [Example 738, 1-{2-[(1R,3S,5R)-3-(2-Fluoro-3-trifluoromethoxy-phenylcarbamoyl)-5-methyl-2-aza-bicyclo[3.1.0]hex-2-yl]-2-oxo-ethyl}-1H-pyrazolo[3,4-c] pyridine-3-carboxylic acid amide], the IC50 is 93 nM.

`NC(=O)c1nn(CC(=O)N2C[C@H](F)C[C@H]2C(=O)Nc2cccc(Br)n2)c2ccccc12` [Example 739, 1-{2-[(2S,4R)-2-(6-Bromo-pyridin-2-ylcarbamoyl)-4-fluoro-pyrrolidin-1-yl]-2-oxo-ethyl}-1H-indazole-3-carboxylic acid amide]: the IC50 stood at 23 nM.

As for `CC(=O)c1nn(CC(=O)N2[C@@H]3C[C@@H]3C[C@H]2C(=O)Nc2cccc(Br)n2)c2ccncc12` [Example 740, (1R,3S,5R)-2-[2-(3-Acetyl-pyrazolo[4,3-c]pyridin-1-yl)-acetyl]-2-aza-bicyclo[3.1.0] hexane-3-carboxylic acid (6-bromo-pyridin-2-yl)-amide], the IC50 stood at 13 nM.

Consider `NC(=O)c1nn(CC(=O)N2[C@@H]3C[C@@H]3C[C@H]2C(=O)Nc2nc(Br)cs2)c2ccccc12` [Example 742, 1-{2-[(1R,3S,5R)-3-(4-Bromo-thiazol-2-ylcarbamoyl)-2-aza-bicyclo[3.1.0]hex-2-yl]-2-oxo-ethyl}-1H-indazole-3-carboxylic acid amide], for which the IC50 worked out at 37 nM.

For `Cc1cc2c(C(N)=O)nn(CC(=O)N3[C@@H]4C[C@@H]4C[C@H]3C(=O)Nc3cccc(Br)n3)c2c(C)n1` [Example 743, 1-{2-[(1R,3S,5R)-3-(6-Bromo-pyridin-2-ylcarbamoyl)-2-aza-bicyclo[3.1.0]hex-2-yl]-2-oxo-ethyl}-5,7-dimethyl-1H-pyrazolo[3,4-c]pyridine-3-carboxylic acid amide], the IC50 was determined as 5 nM.

In general, IC50 refers to the concentration needed to halve the response being measured.
